The results in this text go back to patent US7902375B2, “5-phenyl-4-methyl-thiazol-2-yl-amine derivatives as inhibitors of phosphatidylin ositol 3 kinase enzymes (PI13) for treatment of inflammatory diseases” (Novartis AG, priority 2003, dated 2011).

The target in this assay is T1, human PI3Kγ (recombinant GST-p110γ) (Homo sapiens, UniProt P48736).
T1 construct: Residues 38-1102 of human PI3Kγ are subcloned into the BamH1 and EcoR1 sites of the transfer vector pAcG2T; made in house; host or cells: Sf9 (Spodoptera frugiperda) insect cells, baculovirus
T1 sequence (P48736 38-1102): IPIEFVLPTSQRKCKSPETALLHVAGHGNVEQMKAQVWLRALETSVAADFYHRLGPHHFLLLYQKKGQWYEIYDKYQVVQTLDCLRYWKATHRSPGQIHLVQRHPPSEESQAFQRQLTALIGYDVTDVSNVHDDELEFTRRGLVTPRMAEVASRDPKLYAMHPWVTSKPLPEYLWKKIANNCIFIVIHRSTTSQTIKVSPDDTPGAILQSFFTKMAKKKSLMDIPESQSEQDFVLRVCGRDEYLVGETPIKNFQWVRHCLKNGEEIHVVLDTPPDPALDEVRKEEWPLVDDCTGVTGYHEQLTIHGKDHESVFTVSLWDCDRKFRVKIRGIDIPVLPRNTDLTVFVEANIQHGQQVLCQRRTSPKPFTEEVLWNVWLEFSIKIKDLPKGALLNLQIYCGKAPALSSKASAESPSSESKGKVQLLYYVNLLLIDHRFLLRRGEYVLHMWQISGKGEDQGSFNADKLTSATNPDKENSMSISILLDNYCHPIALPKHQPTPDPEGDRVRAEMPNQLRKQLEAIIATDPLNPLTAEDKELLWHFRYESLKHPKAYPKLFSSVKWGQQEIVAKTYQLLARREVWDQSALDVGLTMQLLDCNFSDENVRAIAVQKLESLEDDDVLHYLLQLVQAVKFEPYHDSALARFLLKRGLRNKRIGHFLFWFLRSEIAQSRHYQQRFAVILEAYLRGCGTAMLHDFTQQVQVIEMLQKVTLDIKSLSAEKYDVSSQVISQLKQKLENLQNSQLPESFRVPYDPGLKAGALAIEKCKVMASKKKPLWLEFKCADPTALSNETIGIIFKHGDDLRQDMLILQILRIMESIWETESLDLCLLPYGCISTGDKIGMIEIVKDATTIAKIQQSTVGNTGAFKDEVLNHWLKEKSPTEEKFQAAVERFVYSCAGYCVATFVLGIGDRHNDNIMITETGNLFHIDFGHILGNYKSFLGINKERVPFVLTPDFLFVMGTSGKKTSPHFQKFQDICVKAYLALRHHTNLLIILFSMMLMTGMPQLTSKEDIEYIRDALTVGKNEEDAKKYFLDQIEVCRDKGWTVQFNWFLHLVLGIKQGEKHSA
Nature of the assay: in vitro kinase assay (Scintillation Proximity Assay), PI3K gamma isoform. The class given is biochemical. Conditions: SPA, phosphatidylinositol substrate, 60 minutes room temperature. As for the experimental part: To express the recombinant protein, Sf9 (Spodoptera frugiperda 9) insect cells are routinely maintained at densities between 3×10^5 and 3×10^6 cells/ml in serum containing TNMFH medium (Sigma). Sf9 cells, at a density of 2×10^6 are infected with human GST-PI3KγΔ34 baculovirus at a multiplicity of infection (m.o.i.) of 1 for 72 hours. The infected cells are harvested by centrifugation at 1400 g for 4 minutes at 4° C. and the cell pellets are frozen at −80° C. […] Cell lysate (supernatant) is added (usually as 50 ml lysate to 1 ml GST resin in 50 ml tubes) and gently rotated on a mixer at 4° C. for 2-3 hours. The unbound flow through sample is collected by centrifugation at 1000 g for 5 minutes at 4° C. using a DENLEY™ centrifuge. The 1 ml GST resin containing bound material is transferred to a 15 ml FALCON™ centrifuge tube for subsequent washing and elution steps. Firstly a series of 3 cycles of washings (mixing by gentle inversion) is performed with 15 ml ice cold wash Buffer A (50 mM Tris-HCl pH 7.5, 1% Triton X-100, 2 mM DTT) interspersed with centrifugation at 1000 g for 5 minutes at 4° C. A final single wash step is performed with 15 ml ice cold wash Buffer B (50 mM Tris-HCl pH 7.5, 2 mM DTT) and then centrifuged at 1000 g for 5 minutes at 4° C. The washed GST resin is finally eluted with 4 cycles of 1 ml ice cold elution buffer (50 mM Tris-HCl pH 7.5, 10 mM reduced glutathione, 2 mM DTT, 150 mM NaCl, 1 mM NaF, 50% ethylene glycol and protease inhibitors) interspersed with centrifugation at 1000 g for 5 minutes at 4° C. Samples are aliquoted and stored at −20° C.
An in vitro kinase assay was established that measures the transfer of the terminal phosphate of adenosine triphosphate to phosphatidylinositol. The kinase reaction is performed in a white 96 well microtitre plate as a Scintillation Proximiy Assay. […] The reaction is started by the addition of 20 μl of enzyme mix (40 mM Tris, 200 mM NaCl, 2 mM EGTA containing recombinant GST-p110γ).
For orientation: IC50 means the midpoint of a concentration-inhibition curve. For the compound `CCn1nnc(CNC(=O)Nc2nc(C)c(-c3ccc(S(C)(=O)=O)c(F)c3)s2)n1` [Example 131, 1-(2-Ethyl-2H-tetrazol-5-ylmethyl)-3-[5-(3-fluoro-4-methanesulfonyl-phenyl)-4-methyl-thiazol-2-yl]-urea], the concentration for half-maximal inhibition (IC50) turned out to be 17 nM.

`CCC(C)(C)NC(=O)CCNC(=O)Nc1nc(C)c(-c2ccc(S(C)(=O)=O)c(F)c2)s1` [Example 145, N-(1,1-Dimethyl-propyl)-3-{3-[5-(3-fluoro-4-methanesulfonyl-phenyl)-4-methyl-thiazol-2-yl]-ureido}-propionamide]: the 50% inhibitory concentration (IC50) came to 17 nM.

With `Cc1nc(NC(=O)NCCc2nnn(C(C)C)n2)sc1-c1ccc(S(C)(=O)=O)c(F)c1` [Example 150, 1-[5-(3-Fluoro-4-methanesulfonyl-phenyl)-4-methyl-thiazol-2-yl]-3-[2-(2-isopropyl-2H-tetrazol-5-yl)-ethyl]-urea], the IC50 turned out to be 56 nM. On to `Cc1nc(NC(=O)NCC(=O)N(C)C(C)C)sc1-c1ccc(S(C)(=O)=O)c(F)c1` [Example 138, 2-{3-[5-(3-Fluoro-4-methanesulfonyl-phenyl)-4-methyl-thiazol-2-yl]-ureido)-N-isopropyl-N-methyl-acetamide], for which the concentration for half-maximal inhibition (IC50) came to 18 nM. The same measure for `Cc1nc(NC(=O)NCc2nnn[nH]2)sc1-c1ccc(S(C)(=O)=O)c(F)c1` [Example 124, 1-[5-(3-Fluoro-4-methanesulfonyl-phenyl)-4-methyl-thiazol-2-yl]-3-(1H-tetrazol-5-ylmethyl)-urea]: 7 nM.
